Here are results for 1 substance from patent US9476053B2, “Methods and compositions for inhibition of immune responses and autoimmunity” (Dynavax Technologies Corporation, priority 2007, dated 2016).

Like-named read-outs stand apart in the source and are kept apart here.

The subject of data set [1] is PDC. The data set can be described thus: Glucocorticoid induced cell death in lupus prone (NZB×NZW)F1 mice treated with DEX plus IRS. The settings on record: DEX 500 μg plus IRS 100 μg, spleen. It is filed as in vivo, mouse. The protocol:
Next, the ability of immunoregulatory sequences to restore responsiveness to glucocorticoid treatment in lupus prone mice (NZB×NZW)F1 was evaluated.
To test whether IRPs comprising an IRS restore sensitiveness to glucocorticoid induced cell death in autoimmune prone animals, Lupus prone mice (NZB×NZW)F1 mice treated with 500 μg of Dexthametasone (DEX) alone or DEX (500 μg) plus IRS (SEQ ID NO: 123) (100 μg) or DEX (500 μg) plus IRS (SEQ ID NO: 123) (100 μg) or DEX (500 μg) plus CTRL oligo (100 μg). Viability of the different cell type was evaluated as described in Example 9.
Cells were identified to be PDC by the surface presence of B220, CD11c, and PDCA1 marker. Myeloid dendritic cells were identified as to be CD11c positive and B220 negative. B-cells were identified as B220 positive cells and CD11c negative. Monocytes were identified as CD11b positive. […] IRS restored sensitiveness to glucocorticoid induced cell death in autoimmune prone animals.

Data set [2] concerns PDC. As to the kind of experiment: In vivo PDC sensitivity to glucocorticoid in 129 mice treated with DEX plus CpG plus IRS. Also on record: species or system mouse. As to conditions: DEX 1000 μg plus CpG 50 μg plus IRS 100 μg. The protocol:
To investigate whether IRPs comprising an IRS restore in vivo PDC sensitivity to glucocorticoid in mice treated with CpG-TLR9 ligand, 129 mice were treated with the glucocorticoid Dexthametasone (DEX; 1000 μg) alone or DEX (1000 μg) plus a immunostimulatory sequence CpG-C ISS C274 (“ISS”; […]. Viability of the different cell type was evaluated as described in Example 9.
Cells were identified to be PDC by the surface presence of B220, CD11c, and PDCA1 marker. Myeloid dendritic cells were identified as to be CD11c positive and B220 negative. B-cells were identified as B220 positive cells and CD11c negative. Monocytes were identified as CD11b positive. Similar results were obtained using blood (data not shown). […] IRPs comprising an IRS restored in vivo PDC sensitivity to glucocorticoid in mice treated with CpG-TLR9 ligand.

Data set [3] deals with plasmacytoid dendritic cells (PDCs). It is filed as cell-based, human.
The test system of data set [4] is IFN-α production in PDC cells. It is filed as cell-based, human.
The subject of data set [5] is cells infiltrating inflamed skin. As to the kind of experiment: Tape-stripping skin inflammation in 129 mice, gene expression of infiltrating cells by Taqman. It is filed as in vivo, mouse. As to conditions: IRS 100 μg s.c. or i.v. or locally. As to the method: PDC infiltrate the inflamed mouse skin. 129 mice were mechanical stripped 12 times with tape or left untreated as control. After 16 hr mice were euthanized and the skin was collected and digested for 1 hr with a solution containing Liberase 0.28 u/ml and the cellular content was analyzed by flow cytometry. A) depicts an example of the facs plot of plasmacytoid dendritic cells PDC were defined to be CD11c+, […]) Cells infiltrating the skin were stimulated in vitro with an immunostimulatory sequence […] ID NO:125), wherein upper case letters represent PS […] lower case letters represent PO linkages) (1 μM) and IFN-α was measured in the supernatant by ELISA. Cells infiltrating inflamed skin show an IFN-α inflammatory gene signature which is preventable by treatment with IRS. Skin of 129 mice was mechanical inflamed by tape stripping as described in FIG. 39. Mice were stripped only or stripped and treated with IRS (SEQ ID NO:123) (100 μg) either administered s.c. or i.v. or locally on the inflamed skin. A group of mice was left completely untreated to serve as controls. Skin was processed as described in FIG. 39 and RNA was extracted from the infiltrating cells using an RNA kit from Quiagen according to manufacture instruction. Gene expression of specific genes was measured by Taqman. […] IRS can target skin inflammation in vivo.
For orientation: In qPCR the cycle at which signal appears reflects the starting amount.

Where [6] appears, read: influenza virus and SEQ ID NO:123 compared to influenza virus alone, hydroxycortisone 1×10^−8 M.
Setting [7] is: influenza virus, no hydroxycortisone present.

“5′-TGCTCCTGGAGGGGTTGT-3′ (chemistry not given here) [SEQ ID NO:123]”: the “sensitiveness to glucocorticoid induced cell death in autoimmune prone animals” value with PDC [1] was “restored”. In the data set with PDC [2], the “in vivo PDC sensitivity to glucocorticoid in mice treated with CpG-TLR9 ligand” value is given as “restored”. Further, the results for the “reduction in the amount of hydroxycortisone necessary to achieve 50% death of PDCs” value in data set [3] (HSV plus SEQ ID NO:123 versus HSV), in data set [3] (ISS plus SEQ ID NO:123 versus ISS) and in data set [3] (influenza virus plus SEQ ID NO:123 versus influenza virus) were 37 fold, 23 fold and 204 fold, respectively. Moreover, in data set [3] (combination with influenza virus, hydroxycortisone 1×10^−6 M, 48H), the “percent survival of PDCs compared to influenza virus alone” value was “statistically significant decrease”. Also, the “decrease in survival of PDC cells” value in data set [3] (setting [6]) was found to be 23%. Moreover, the “difference in PDC survival” value in data set [3] (setting [7]) is recorded as “no difference”. Also, the IFN-α production inhibited in data set [4] (setting [6]) is reported as 92%. In addition, the IFN-α inhibition result in data set [4] (setting [7]) is “completely inhibited”. The “IFN-α inflammatory gene signature of cells infiltrating inflamed skin” value in data set [5] was “preventable”.
